Experimental data taken from PubChem BioAssay (NCI).
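How tested: cells in 96-well plates exposed to compound for 48 hours at five concentrations. GI50 = concentration required for 50% inhibition of growth. At the TGI there is no net growth.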

Assays:
Assay in all cases: inhibition of tumour cell growth, NCI panel, 48 h
DU-145 prostate = test system: DU-145 prostate
HCC-2998 colon = test system: HCC-2998 colon
SK-MEL-28 melanoma = test system: SK-MEL-28 melanoma
TK-10 renal = test system: TK-10 renal
NCI-H23 lung = test system: NCI-H23 lung
HCT-15 colon = test system: HCT-15 colon
A549 NSCLC = test system: A549 NSCLC
NCI-H226 lung = test system: NCI-H226 lung
OVCAR-5 ovarian = test system: OVCAR-5 ovarian
SK-OV-3 ovarian = test system: SK-OV-3 ovarian
HOP-92 NSCLC = test system: HOP-92 NSCLC
OVCAR-3 ovarian = test system: OVCAR-3 ovarian
SF-295 CNS = test system: SF-295 CNS
RXF 393 renal = test system: RXF 393 renal
UACC-62 melanoma = test system: UACC-62 melanoma
SF-268 CNS = test system: SF-268 CNS
SNB-75 CNS = test system: SNB-75 CNS
BT-549 breast = test system: BT-549 breast
IGROV1 ovarian = test system: IGROV1 ovarian
MDA-MB-435 = test system: MDA-MB-435
KM12 colon = test system: KM12 colon
786-0 renal = test system: 786-0 renal
SN12C renal = test system: SN12C renal
OVCAR-8 ovarian = test system: OVCAR-8 ovarian
LOX IMVI melanoma = test system: LOX IMVI melanoma
UACC-257 melanoma = test system: UACC-257 melanoma
CAKI-1 renal = test system: CAKI-1 renal
MDA-MB-231 breast = test system: MDA-MB-231 breast
T-47D breast = test system: T-47D breast
NCI/ADR-RES ovarian = test system: NCI/ADR-RES ovarian
NCI-H522 lung = test system: NCI-H522 lung
ACHN renal = test system: ACHN renal
SF-539 CNS = test system: SF-539 CNS
HCT-116 colon = test system: HCT-116 colon
COLO 205 colon = test system: COLO 205 colon
A498 renal = test system: A498 renal
HT29 colon = test system: HT29 colon
M14 melanoma = test system: M14 melanoma
PC-3 prostate = test system: PC-3 prostate
SK-MEL-2 melanoma = test system: SK-MEL-2 melanoma
K-562 leukemia = test system: K-562 leukemia
SNB-19 CNS = test system: SNB-19 CNS
MOLT-4 leukemia = test system: MOLT-4 leukemia
RPMI-8226 leukemia = test system: RPMI-8226 leukemia
U251 CNS = test system: U251 CNS
OVCAR-4 ovarian = test system: OVCAR-4 ovarian
HS 578T breast = test system: HS 578T breast
SW-620 colon = test system: SW-620 colon
NCI-H460 lung = test system: NCI-H460 lung
CCRF-CEM leukemia = test system: CCRF-CEM leukemia
UO-31 renal = test system: UO-31 renal
SK-MEL-5 melanoma = test system: SK-MEL-5 melanoma
MALME-3M melanoma = test system: MALME-3M melanoma
MCF7 breast = test system: MCF7 breast
SR leukemia = test system: SR leukemia
HOP-62 NSCLC = test system: HOP-62 NSCLC
EKVX NSCLC = test system: EKVX NSCLC
HL-60(TB) leukemia = test system: HL-60(TB) leukemia

O=c1oc2ccc(F)cc2c(=O)n1-c1ccc(Cl)cc1F
GI50 (DU-145 prostate): 1100 nM
TGI (DU-145 prostate): 22000 nM
GI50 (HCC-2998 colon): 2890 nM
TGI (HCC-2998 colon): 10800 nM
GI50 (SK-MEL-28 melanoma): 456 nM
TGI (SK-MEL-28 melanoma): 2920 nM
GI50 (TK-10 renal): 3730 nM
TGI (TK-10 renal): 12200 nM
GI50 (NCI-H23 lung): 604 nM
TGI (NCI-H23 lung): 5160 nM
GI50 (HCT-15 colon): 1260 nM
TGI (HCT-15 colon): 10300 nM
GI50 (A549 NSCLC): 2170 nM
TGI (A549 NSCLC): > 100000 nM
GI50 (NCI-H226 lung): 1220 nM
TGI (NCI-H226 lung): 4910 nM
GI50 (OVCAR-5 ovarian): 3730 nM
TGI (OVCAR-5 ovarian): > 100000 nM
GI50 (SK-OV-3 ovarian): 584 nM
TGI (SK-OV-3 ovarian): 2580 nM
GI50 (HOP-92 NSCLC): 205 nM
TGI (HOP-92 NSCLC): 613 nM
GI50 (OVCAR-3 ovarian): 550 nM
TGI (OVCAR-3 ovarian): 12500 nM
GI50 (SF-295 CNS): 1820 nM
TGI (SF-295 CNS): 3660 nM
GI50 (RXF 393 renal): 974 nM
TGI (RXF 393 renal): 4480 nM
GI50 (UACC-62 melanoma): 330 nM
TGI (UACC-62 melanoma): 1560 nM
GI50 (SF-268 CNS): 879 nM
TGI (SF-268 CNS): 11700 nM
GI50 (SNB-75 CNS): 375 nM
TGI (SNB-75 CNS): 2650 nM
GI50 (BT-549 breast): 488 nM
TGI (BT-549 breast): 2430 nM
GI50 (IGROV1 ovarian): 532 nM
TGI (IGROV1 ovarian): > 45800 nM
GI50 (MDA-MB-435): 674 nM
TGI (MDA-MB-435): 5480 nM
GI50 (KM12 colon): 2110 nM
TGI (KM12 colon): 5840 nM
GI50 (786-0 renal): 2800 nM
TGI (786-0 renal): 8850 nM
GI50 (SN12C renal): 495 nM
TGI (SN12C renal): 6920 nM
GI50 (OVCAR-8 ovarian): 2050 nM
TGI (OVCAR-8 ovarian): 26200 nM
GI50 (LOX IMVI melanoma): 527 nM
TGI (LOX IMVI melanoma): 6970 nM
GI50 (UACC-257 melanoma): 660 nM
TGI (UACC-257 melanoma): 4540 nM
GI50 (CAKI-1 renal): 360 nM
TGI (CAKI-1 renal): 3410 nM
GI50 (MDA-MB-231 breast): 675 nM
TGI (MDA-MB-231 breast): 6330 nM
GI50 (T-47D breast): 661 nM
TGI (T-47D breast): 5460 nM
GI50 (NCI/ADR-RES ovarian): 1180 nM
TGI (NCI/ADR-RES ovarian): 9310 nM
GI50 (NCI-H522 lung): 363 nM
TGI (NCI-H522 lung): 4500 nM
GI50 (ACHN renal): 700 nM
TGI (ACHN renal): 11800 nM
GI50 (SF-539 CNS): 564 nM
TGI (SF-539 CNS): 6790 nM
GI50 (HCT-116 colon): 563 nM
TGI (HCT-116 colon): 2820 nM
GI50 (COLO 205 colon): 2140 nM
TGI (COLO 205 colon): 4870 nM
GI50 (A498 renal): 240 nM
TGI (A498 renal): 796 nM
GI50 (HT29 colon): 3290 nM
TGI (HT29 colon): > 34200 nM
GI50 (M14 melanoma): 594 nM
TGI (M14 melanoma): 4550 nM
GI50 (PC-3 prostate): 1500 nM
TGI (PC-3 prostate): 6320 nM
GI50 (SK-MEL-2 melanoma): 420 nM
TGI (SK-MEL-2 melanoma): 2530 nM
GI50 (K-562 leukemia): 509 nM
TGI (K-562 leukemia): > 100000 nM
GI50 (SNB-19 CNS): 541 nM
TGI (SNB-19 CNS): > 100000 nM
GI50 (MOLT-4 leukemia): 2000 nM
TGI (MOLT-4 leukemia): 5270 nM
GI50 (RPMI-8226 leukemia): 356 nM
TGI (RPMI-8226 leukemia): 1900 nM
GI50 (U251 CNS): 868 nM
TGI (U251 CNS): > 59800 nM
GI50 (OVCAR-4 ovarian): 737 nM
TGI (OVCAR-4 ovarian): 7680 nM
GI50 (HS 578T breast): 572 nM
TGI (HS 578T breast): 5770 nM
GI50 (SW-620 colon): 1240 nM
TGI (SW-620 colon): 21200 nM
GI50 (NCI-H460 lung): 619 nM
TGI (NCI-H460 lung): 12200 nM
GI50 (CCRF-CEM leukemia): 2620 nM
TGI (CCRF-CEM leukemia): 13000 nM
GI50 (UO-31 renal): 264 nM
TGI (UO-31 renal): 2520 nM
GI50 (SK-MEL-5 melanoma): 290 nM
TGI (SK-MEL-5 melanoma): 890 nM
GI50 (MALME-3M melanoma): 403 nM
TGI (MALME-3M melanoma): 2510 nM
GI50 (MCF7 breast): 1950 nM
TGI (MCF7 breast): > 29000 nM
GI50 (SR leukemia): 619 nM
TGI (SR leukemia): > 39100 nM
GI50 (HOP-62 NSCLC): 1570 nM
TGI (HOP-62 NSCLC): 6530 nM
GI50 (EKVX NSCLC): 1610 nM
TGI (EKVX NSCLC): 8140 nM
GI50 (HL-60(TB) leukemia): 578 nM
TGI (HL-60(TB) leukemia): 2730 nM
